Data reported in patent publication US20050089473A1, “Potassium channel mediated delivery of agents through the blood-brain barrier” (Cedars-Sinai Medical Center, priority 2003, published 2005).
Where “and” joins values, the source holds several entries; their conditions need not be identical. Equal values may be shown once. Read-outs that look alike come from different tables or passages of the source. Ends that are not written are not given here.

How the values were obtained:
[1] = cited from earlier work
soluble guanylyl cyclase = target: T1, soluble guanylyl cyclase (Bos taurus, UniProt P16068+P19687); conditions: cited from earlier work
T1 sequence (P16068 1-619): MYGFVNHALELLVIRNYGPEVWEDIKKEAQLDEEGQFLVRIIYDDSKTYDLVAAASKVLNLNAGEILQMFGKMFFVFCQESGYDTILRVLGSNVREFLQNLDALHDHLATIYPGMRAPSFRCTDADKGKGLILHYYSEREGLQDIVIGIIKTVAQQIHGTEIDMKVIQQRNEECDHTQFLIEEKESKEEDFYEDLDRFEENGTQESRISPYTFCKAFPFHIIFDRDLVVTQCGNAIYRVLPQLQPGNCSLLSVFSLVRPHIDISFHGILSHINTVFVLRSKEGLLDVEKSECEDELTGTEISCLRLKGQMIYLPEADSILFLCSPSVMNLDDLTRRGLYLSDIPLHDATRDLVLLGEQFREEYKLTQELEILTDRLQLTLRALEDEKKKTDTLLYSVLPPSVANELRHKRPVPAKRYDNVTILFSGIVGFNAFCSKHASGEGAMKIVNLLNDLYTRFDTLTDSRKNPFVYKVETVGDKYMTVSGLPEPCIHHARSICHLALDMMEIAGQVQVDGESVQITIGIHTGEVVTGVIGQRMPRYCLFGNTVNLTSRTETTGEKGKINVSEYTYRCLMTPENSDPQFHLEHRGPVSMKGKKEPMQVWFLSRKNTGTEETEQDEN
T1 sequence (P19687 1-691): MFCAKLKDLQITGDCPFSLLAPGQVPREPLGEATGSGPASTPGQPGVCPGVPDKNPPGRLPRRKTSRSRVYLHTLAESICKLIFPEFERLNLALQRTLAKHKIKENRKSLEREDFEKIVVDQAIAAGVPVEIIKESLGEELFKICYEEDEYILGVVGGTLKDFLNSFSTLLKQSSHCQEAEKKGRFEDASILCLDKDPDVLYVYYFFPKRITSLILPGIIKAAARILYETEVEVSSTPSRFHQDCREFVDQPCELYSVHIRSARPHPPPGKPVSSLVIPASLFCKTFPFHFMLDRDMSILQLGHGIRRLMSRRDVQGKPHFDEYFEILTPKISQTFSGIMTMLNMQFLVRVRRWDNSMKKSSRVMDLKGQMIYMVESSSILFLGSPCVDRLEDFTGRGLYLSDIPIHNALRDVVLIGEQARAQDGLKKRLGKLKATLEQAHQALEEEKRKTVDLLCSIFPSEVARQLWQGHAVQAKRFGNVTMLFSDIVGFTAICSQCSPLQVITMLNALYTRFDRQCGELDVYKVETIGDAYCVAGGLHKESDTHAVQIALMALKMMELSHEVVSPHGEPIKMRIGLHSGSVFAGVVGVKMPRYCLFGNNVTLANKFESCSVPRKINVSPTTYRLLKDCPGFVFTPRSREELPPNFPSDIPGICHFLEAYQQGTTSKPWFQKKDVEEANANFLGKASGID

[2] = cited from earlier work; remark: listed apart in the source
intracranial RG2 tumors = assay: Survival study, rats with intracranial RG2 tumors; type: in vivo, rat
Procedure: Wistar rats with implanted intracranial tumors were used to study the effect of MS on increased carboplatin delivery and survival. RG2 cells (1×10^5) were implanted intracranially to form a tumor (2 mm in size) in rats within a week. After a week, rats were given saline, carboplatin (5 mg/kg) or carboplatin after 15 min of MS (30 μg/kg/min for 15 min) infusion through an exteriorized catheter once a day for three consecutive days. The rats were carefully monitored for mortality and clinical signs due to brain tumor growth for 90 days or until death, whichever came first. Brains of dead, moribund or those rats that survived beyond 90 days were removed, frozen and cryosectioned for histological evaluation, in order to compare tumor volumes between treated and untreated groups. Kaplan-Meier analysis was performed to determine the statistical significance of the results.

intracerebral RG2 tumors = assay: In vivo BTB permeability (Ki by quantitative autoradiography) in RG2 tumor-bearing rats; design: species or system rat; conditions: data not shown
KATP channels = assay: Membrane potential assay of KATP channel activity; type: cell-based, human; conditions: RBEC, HBMVEC, RG2 and GBM cells
Procedure: Functional activities of putative KATP channels in HBMVEC and GBM cells were measured by detecting changes in voltage across the cell membrane as described earlier (Ningarsj, N. S., Rao, M., Hashizume, K., Asotra, K., and Black, K. L. Regulation of blood-brain tumor barrier permeability by calcium-activated potassium channels J. Pharmacol. Exp. Ther., 301:838-851, 2002). A membrane potential assay kit (Molecular Devices, Sunnyvale, Calif.) provided a fast, simple and consistent mix-and-read procedure. In brief, HBMVEC and GBM cells obtained from cell passages 2-5 was suspended in 5 ml of growth medium. In two separate experiments, the cell density was adjusted to 1×10^3 cells/well and coated in sterile, clear bottom, blank 96-well plates (Corning, Inc., Acton, Mass.), pre-coated with poly L-Lysine, and allowed to achieve a monolayer within 24 h. The monolayer cells were incubated with the membrane potential assay kit reagents for 30 min and read directly by FLEXstation. The anionic pchemiometric dye that traverses between cells and the extracellular solution in a membrane potential-dependent manner serves as an indicator of vasomodulator-induced voltage changes across the cell membrane. […] Additionally, the effects of the optimum dose (10 μM) of MS and glibenclamide (100 nM) on KATP channels activity in HBMVEC and GBM cells were determined.

[3] = system: intracranial human glial tumors; assay: Survival study, nude mice with intracranial human glial tumors; type: in vivo, mouse; conditions: i.v., three consecutive doses for three days
Procedure: GBM-xenograft rat and mouse models were developed by intracranially implanting primary GBM cells isolated from patient brain tumor tissue. […] To investigate whether MS administration by intracarotid (i.c.) and intravenous (i.v.) routes, increases BTB permeability to different tracers, and enhances delivery to brain tumor, permeability studies were performed.
Nude mice were intracranially implanted with cells. The tumor was allowed to grow for 7 days before treatment was initiated.

CC(=O)NC(C(=O)O)C(C)(C)SN=O (racemic) [SNAP, S-nitroso-N-acetyl-D,L-penicillamine]
Half-life (t1/2) of NO donor [1]: 1980 to 2460 min

[C-]#[O+] [CO, Carbon monoxide]
Increase in soluble guanylyl cyclase activity (soluble guanylyl cyclase; in the presence of YC-1): > 100 fold

CCN(CC)N(O)N=O.CCNCC [DEA/NO, N-ethylethanamine: 1,1-diethyl-2-hydroxy-2-nitrosohydrazine (1:1)]
Half-life (t1/2) of NO donor [1]: 2 to 4 min

NCCN(CCN)N(O)N=O [DETA/NO, 2,2′-hydroxynitrosohydrazino]bis-ethanamine]
Half-life (t1/2) of NO donor [1]: about 20 hours

[N]=O [NO, Nitric oxide]
Increase of vMax of sGC (soluble guanylyl cyclase): 100-200 fold

O=c1[nH]c2cc(C(F)(F)F)ccc2n1-c1cc(C(F)(F)F)ccc1O [NS-1619, 1,3-dihydro-1-[2-hydroxy-5-(trifluoromethyl)phenyl]-5-(trifluoromethyl)-2H-benzimidazol-2-one]
Effect on CBF in tumor and normal brain ([2]; i.c. infusion of low doses): did not alter CBF

CCCN(CCCN)N(O)N=O [PAPA/NO, 3-(2-hydroxy-2-nitroso-1-propylhydrazino)-1-propanamine]
Half-life (t1/2) of NO donor [1]: about 15 minutes

NCCCNCCCCN(CCCN)N(O)N=O [SPER/NO, N-(4-[1-(3-aminopropyl)-2-hydroxy-2-nitroso-hydrazino]-butyl)-1,3-propanediamine]
Half-life (t1/2) of NO donor [1]: 34 to 40 min

N.N.O=C([O-])C1(C(=O)[O-])CCC1.[Pt+2] [carboplatin]
Mean survival (intracranial RG2 tumors; RG2 tumor rats, i.c. once a day for three days, carboplatin 5 mg/kg, MS 30 μg/kg/min for 15 min): 55.46 ± 5.71 days | Mean tumor size (intracranial RG2 tumors; coronal brain sections): 5.30±1.9 mm^2 and 5.30±1.2 mm^2

COc1ccc(Cl)cc1C(=O)NCCc1ccc(S(=O)(=O)NC(=O)NC2CCCCC2)cc1 [glibenclamide]
BBB or BTB permeability, glibenclamide infused alone or prior to MS (intracerebral RG2 tumors): did not affect BBB or BTB permeability | Membrane potential dye fluorescence intensity (KATP channels): reversed

Cn1nnc2c(C(N)=O)ncn2c1=O [temodor]
Mean survival [3]: 25.5 ± 6.3 days

RPPGFSPFR [BK]
Effect on CBF in tumor and normal brain ([2]; rat, in vivo): did not alter CBF
